Laboratory results reported in ChEMBL document CHEMBL3862010, “N-Arylsulfonyl-α-amino carboxamides are potent and selective inhibitors of the chemokine receptor CCR10 that show efficacy in the murine DNFB model of contact hypersensitivity” (Bioorg Med Chem Lett, 2016).

Key:
[1] = Plasma concentration in Balb/C mouse at 30 mg/kg, ip bid measured after 1 hr; format: ADME, organism-based; settings: Balb/C, plasma
[2] = biological target: T1, C-C chemokine receptor type 10 (Homo sapiens, UniProt P46092); assay: Antagonist activity at human CCR10 expressed in CHOK1 cells coexpressing aequorin/Galphaq assessed as inhibition of human CCL27-dependent calcium flux in presence of coelenterazine H by chemiluminescence assay; format: functional, cell-based, CHO-K1; settings: read-out: pIC50 (converted)
T1 sequence (P46092 whole entry): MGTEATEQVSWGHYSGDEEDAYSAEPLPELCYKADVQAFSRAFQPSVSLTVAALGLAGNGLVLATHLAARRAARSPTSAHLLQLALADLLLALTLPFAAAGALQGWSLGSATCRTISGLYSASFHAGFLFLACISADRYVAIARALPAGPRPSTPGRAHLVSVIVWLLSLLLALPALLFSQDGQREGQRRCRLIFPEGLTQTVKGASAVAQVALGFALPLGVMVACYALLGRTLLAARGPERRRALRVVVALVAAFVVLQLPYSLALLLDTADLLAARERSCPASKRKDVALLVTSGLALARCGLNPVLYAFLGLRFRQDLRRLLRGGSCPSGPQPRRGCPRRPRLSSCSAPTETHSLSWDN

[3] = Time at which plasma concentration stays near or above in vitro murine IC50 level in Balb/C mouse at 100 mg/kg, ip bid; format: ADME, organism-based; settings: in vivo
[4] = Plasma concentration in Balb/C mouse at 100 mg/kg, ip bid measured after 7 hrs; format: ADME, organism-based
[5] = Protein binding in Balb/C mouse plasma at 100 mg/kg, ip bid; format: ADME, organism-based; settings: Balb/C, plasma, read-out: PPB
[6] = biological target: T2, C-C chemokine receptor type 10 (Mus musculus, UniProt Q9JL21); assay: Antagonist activity at mouse CCR10 expressed in CHOK1 cells coexpressing aequorin/Galphaq assessed as inhibition of CCL27-dependent calcium flux in presence of coelenterazine H by chemiluminescence assay; format: functional, cell-based, CHO-K1
T2 sequence (Q9JL21 whole entry): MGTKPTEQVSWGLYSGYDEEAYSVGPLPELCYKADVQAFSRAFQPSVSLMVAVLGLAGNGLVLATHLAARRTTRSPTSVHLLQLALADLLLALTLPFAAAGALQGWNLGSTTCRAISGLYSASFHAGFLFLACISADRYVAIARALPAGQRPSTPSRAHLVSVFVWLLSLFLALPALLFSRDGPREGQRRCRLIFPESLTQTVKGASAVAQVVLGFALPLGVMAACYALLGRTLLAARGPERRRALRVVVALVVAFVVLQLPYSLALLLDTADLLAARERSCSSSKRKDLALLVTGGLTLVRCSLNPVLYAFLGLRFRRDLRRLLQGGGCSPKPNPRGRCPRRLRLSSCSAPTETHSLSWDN

[7] = biological target: C-C chemokine receptor type 6 (Homo sapiens, UniProt P51684); assay: Antagonist activity at human CCR6 assessed as inhibition of CCL20/MIP-3alpha-induced calcium flux; format: functional
C-C chemokine receptor type 6, sequence (P51684 whole entry): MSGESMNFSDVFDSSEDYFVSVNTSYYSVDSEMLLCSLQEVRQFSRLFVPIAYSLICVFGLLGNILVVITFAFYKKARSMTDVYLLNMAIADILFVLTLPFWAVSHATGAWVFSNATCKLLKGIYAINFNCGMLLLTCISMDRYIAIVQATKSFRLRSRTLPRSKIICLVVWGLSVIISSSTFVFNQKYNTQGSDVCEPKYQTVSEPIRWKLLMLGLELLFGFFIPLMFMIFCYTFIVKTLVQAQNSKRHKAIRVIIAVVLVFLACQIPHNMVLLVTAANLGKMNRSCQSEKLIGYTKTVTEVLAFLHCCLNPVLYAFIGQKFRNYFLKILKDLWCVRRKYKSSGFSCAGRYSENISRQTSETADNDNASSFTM

[8] = Plasma concentration in Balb/C mouse at 100 mg/kg, ip bid measured after 1 hr; format: ADME, organism-based; settings: in vivo
[9] = test system: Mus musculus; assay: Antiinflammatory activity in Balb/C mouse model of contact hypersensitivity assessed as inhibition of DNFB-stimulated ear swelling at 100 mg/kg, ip bid administered at 0 and 8 hrs measured 24 hrs post DNFB stimulation; format: functional
[10] = biological target: C-X-C chemokine receptor type 2 (Homo sapiens, UniProt P25025); assay: Antagonist activity at human CXCR2 assessed as inhibition of GROalpha-induced calcium flux; format: functional
C-X-C chemokine receptor type 2, sequence (P25025 whole entry): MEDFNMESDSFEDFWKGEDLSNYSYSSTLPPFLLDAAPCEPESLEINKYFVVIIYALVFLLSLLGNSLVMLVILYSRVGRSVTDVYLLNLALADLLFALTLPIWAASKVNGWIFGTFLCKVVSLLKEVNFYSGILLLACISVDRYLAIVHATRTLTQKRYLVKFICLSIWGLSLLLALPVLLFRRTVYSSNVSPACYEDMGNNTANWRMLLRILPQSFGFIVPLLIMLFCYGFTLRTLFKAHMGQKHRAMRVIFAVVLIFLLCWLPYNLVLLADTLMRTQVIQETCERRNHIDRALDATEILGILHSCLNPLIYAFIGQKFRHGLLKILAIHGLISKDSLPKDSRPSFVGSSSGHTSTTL

[11] = biological target: C-C chemokine receptor type 5 (Homo sapiens, UniProt P51681); assay: Antagonist activity at human CCR5 assessed as inhibition of RANTES-induced calcium flux; format: functional
[12] = biological target: Histamine H4 receptor (Homo sapiens, UniProt Q9H3N8); assay: Antagonist activity at human histamine H4 receptor assessed as inhibition of histamine-induced calcium flux; format: functional
Histamine H4 receptor, sequence (Q9H3N8 whole entry): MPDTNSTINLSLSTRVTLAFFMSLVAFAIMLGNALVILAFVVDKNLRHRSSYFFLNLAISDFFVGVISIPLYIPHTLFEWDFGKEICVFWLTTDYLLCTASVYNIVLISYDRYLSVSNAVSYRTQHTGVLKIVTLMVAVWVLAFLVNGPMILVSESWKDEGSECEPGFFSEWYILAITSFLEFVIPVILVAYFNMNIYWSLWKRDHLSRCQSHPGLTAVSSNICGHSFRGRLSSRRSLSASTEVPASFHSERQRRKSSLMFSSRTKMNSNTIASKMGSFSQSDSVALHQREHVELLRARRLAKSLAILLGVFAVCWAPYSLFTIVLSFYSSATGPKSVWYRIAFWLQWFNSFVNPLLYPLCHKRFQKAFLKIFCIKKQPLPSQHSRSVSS

[13] = biological target: T1, C-C chemokine receptor type 10; assay: Antagonist activity at human CCR10 expressed in CHOK1 cells coexpressing aequorin/Galphaq assessed as inhibition of CCL27-dependent calcium flux in presence of coelenterazine H by FLIPR assay; format: functional, cell-based, CHO-K1
[14] = biological target: C-X-C chemokine receptor type 3 (Homo sapiens, UniProt P49682); assay: Antagonist activity at human CXCR3 assessed as inhibition of IP10-induced calcium flux; format: functional
C-X-C chemokine receptor type 3, sequence (P49682 whole entry): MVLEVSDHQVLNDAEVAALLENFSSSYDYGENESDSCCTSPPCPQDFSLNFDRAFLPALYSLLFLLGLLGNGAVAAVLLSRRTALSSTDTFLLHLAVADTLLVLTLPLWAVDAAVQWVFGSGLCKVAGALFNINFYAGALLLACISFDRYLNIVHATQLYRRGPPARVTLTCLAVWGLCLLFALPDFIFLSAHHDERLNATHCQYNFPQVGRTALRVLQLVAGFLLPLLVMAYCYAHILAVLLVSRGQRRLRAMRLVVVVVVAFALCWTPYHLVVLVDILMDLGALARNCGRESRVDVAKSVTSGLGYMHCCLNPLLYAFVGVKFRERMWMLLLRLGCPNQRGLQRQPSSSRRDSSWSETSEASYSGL

[15] = Half life in mouse liver microsomes; format: ADME
[16] = biological target: C-C chemokine receptor type 2 (Homo sapiens, UniProt P41597); assay: Antagonist activity at human CCR2 assessed as inhibition of MCP1-induced calcium flux; format: functional
C-C chemokine receptor type 2, sequence (P41597 whole entry): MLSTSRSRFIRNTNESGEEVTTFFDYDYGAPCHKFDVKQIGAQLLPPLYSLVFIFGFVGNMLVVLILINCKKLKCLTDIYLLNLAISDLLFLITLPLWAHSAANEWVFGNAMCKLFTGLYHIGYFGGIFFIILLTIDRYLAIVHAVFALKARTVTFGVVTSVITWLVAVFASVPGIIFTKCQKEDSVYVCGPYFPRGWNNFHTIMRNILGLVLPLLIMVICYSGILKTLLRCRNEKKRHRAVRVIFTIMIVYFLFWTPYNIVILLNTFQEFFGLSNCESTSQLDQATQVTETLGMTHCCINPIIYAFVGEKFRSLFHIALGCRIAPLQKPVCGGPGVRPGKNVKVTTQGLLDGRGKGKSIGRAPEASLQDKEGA

[17] = biological target: C-C chemokine receptor type 1 (Homo sapiens, UniProt P32246); assay: Antagonist activity at human CCR1 assessed as inhibition of MIP1alpha-induced calcium flux; format: functional
C-C chemokine receptor type 1, sequence (P32246 whole entry): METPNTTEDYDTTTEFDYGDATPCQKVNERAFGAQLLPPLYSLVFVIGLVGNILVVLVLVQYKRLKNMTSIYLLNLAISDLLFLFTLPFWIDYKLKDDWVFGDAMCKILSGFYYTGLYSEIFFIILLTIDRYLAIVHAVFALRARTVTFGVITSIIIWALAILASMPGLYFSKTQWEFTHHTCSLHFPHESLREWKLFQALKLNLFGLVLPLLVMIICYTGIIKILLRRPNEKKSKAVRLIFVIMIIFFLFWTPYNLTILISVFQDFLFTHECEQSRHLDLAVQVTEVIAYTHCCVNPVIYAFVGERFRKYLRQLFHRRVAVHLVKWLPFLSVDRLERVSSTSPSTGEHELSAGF

[18] = Clearance in mouse liver microsomes relative to hepatic blood flow; format: ADME; settings: read-out: CLH
[19] = biological target: T1, C-C chemokine receptor type 10; assay: Antagonist activity at human CCR10 expressed in HEK cell membranes assessed as inhibition of human CCL27-dependent europium-labeled GTP binding; parameters: species or system HEK293
[20] = biological target: T1, C-C chemokine receptor type 10; assay: Antagonist activity at human CCR10 expressed in CHOK1 cells coexpressing aequorin/Galphaq assessed as inhibition of human CCL28-dependent calcium flux by FLIPR assay; format: functional, cell-based, CHO-K1
[21] = biological target: T1, C-C chemokine receptor type 10; assay: Antagonist activity at human CCR10 expressed in HEK cells assessed as inhibition of human CCL27-dependent cAMP production; format: functional, cell-based, HEK293
[22] = biological target: T1, C-C chemokine receptor type 10; assay: Antagonist activity at human CCR10 expressed in CHOK1 cells coexpressing aequorin/Galphaq assessed as inhibition of human CCL28-dependent calcium flux by chemiluminescence assay; format: functional, cell-based, CHO-K1
[23] = biological target: Adrenergic receptor beta (Rattus norvegicus) (UniProt P18090+P10608+P26255); assay: Binding affinity to rat adrenergic beta receptor at 10 uM relative to control
[24] = biological target: Adrenergic receptor alpha-2 (Rattus norvegicus) (UniProt P22086+P19328+P22909); assay: Binding affinity to rat adrenergic alpha2 receptor at 10 uM relative to control
[25] = biological target: D(2) dopamine receptor (Homo sapiens) (UniProt P14416); assay: Binding affinity to human dopamine D2L receptor at 10 uM relative to control
D(2) dopamine receptor (Homo sapiens), sequence (P14416 whole entry): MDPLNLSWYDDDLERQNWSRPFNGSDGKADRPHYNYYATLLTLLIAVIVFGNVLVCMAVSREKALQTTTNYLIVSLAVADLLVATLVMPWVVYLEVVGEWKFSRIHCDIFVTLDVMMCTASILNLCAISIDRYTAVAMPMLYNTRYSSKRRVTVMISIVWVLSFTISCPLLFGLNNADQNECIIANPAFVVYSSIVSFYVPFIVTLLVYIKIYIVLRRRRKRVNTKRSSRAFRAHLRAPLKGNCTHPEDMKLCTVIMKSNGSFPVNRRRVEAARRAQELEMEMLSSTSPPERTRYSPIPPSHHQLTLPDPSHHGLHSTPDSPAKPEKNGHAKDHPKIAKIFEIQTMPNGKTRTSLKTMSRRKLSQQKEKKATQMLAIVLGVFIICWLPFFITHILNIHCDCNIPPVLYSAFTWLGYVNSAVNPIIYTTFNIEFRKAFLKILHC

[26] = biological target: Type-1 angiotensin II receptor (Homo sapiens) (UniProt P30556); assay: Binding affinity to human AT1 receptor at 10 uM relative to control
[27] = biological target: D(3) dopamine receptor (Homo sapiens) (UniProt P35462); assay: Binding affinity to human dopamine D3 receptor at 10 uM relative to control
D(3) dopamine receptor (Homo sapiens), sequence (P35462 whole entry): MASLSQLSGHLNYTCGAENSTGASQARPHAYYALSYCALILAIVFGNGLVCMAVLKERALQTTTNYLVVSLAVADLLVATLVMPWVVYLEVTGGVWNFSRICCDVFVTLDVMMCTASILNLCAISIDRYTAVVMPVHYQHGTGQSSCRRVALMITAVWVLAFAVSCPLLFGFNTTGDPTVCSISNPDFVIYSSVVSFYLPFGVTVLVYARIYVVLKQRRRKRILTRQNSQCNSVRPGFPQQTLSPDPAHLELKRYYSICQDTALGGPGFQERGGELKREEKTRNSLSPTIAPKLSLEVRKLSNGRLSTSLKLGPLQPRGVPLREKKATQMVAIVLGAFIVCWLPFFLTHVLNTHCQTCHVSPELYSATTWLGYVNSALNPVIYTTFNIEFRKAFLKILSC

[28] = species on record: Rattus norvegicus; assay: Binding affinity to rat glutamate receptor at 10 uM relative to control
[29] = biological target: Adrenergic receptor alpha-1 (Rattus norvegicus) (UniProt P15823+P23944+P43140); assay: Binding affinity to rat adrenergic alpha1 receptor at 10 uM relative to control
[30] = biological target: Histamine H2 receptor (Homo sapiens) (UniProt P25021); assay: Binding affinity to human histamine H2 receptor at 10 uM relative to control
Histamine H2 receptor (Homo sapiens), sequence (P25021 whole entry): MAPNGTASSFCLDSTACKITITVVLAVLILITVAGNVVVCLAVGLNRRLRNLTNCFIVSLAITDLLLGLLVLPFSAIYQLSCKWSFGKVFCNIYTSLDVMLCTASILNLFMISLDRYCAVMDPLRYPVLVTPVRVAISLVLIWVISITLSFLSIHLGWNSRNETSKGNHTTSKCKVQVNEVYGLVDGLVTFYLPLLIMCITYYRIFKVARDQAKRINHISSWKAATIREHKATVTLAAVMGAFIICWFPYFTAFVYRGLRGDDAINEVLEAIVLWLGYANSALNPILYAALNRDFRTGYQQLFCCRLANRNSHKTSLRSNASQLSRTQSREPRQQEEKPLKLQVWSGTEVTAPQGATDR

[31] = biological target: Histamine H1 receptor (Homo sapiens) (UniProt P35367); assay: Binding affinity to human histamine H1 receptor at 10 uM relative to control
[32] = test system: Mus musculus; assay: Antiinflammatory activity in Balb/C mouse model of contact hypersensitivity assessed as inhibition of DNFB-stimulated ear swelling administered ip bid at 0 and 8 hrs measured 24 hrs post DNFB stimulation; format: functional, organism-based
[33] = biological target: C-C chemokine receptor type 4 (Homo sapiens) (UniProt P51679); assay: Antagonist activity at human CCR4 assessed as inhibition of CCL22-induced calcium flux at 10 uM relative to control; format: functional
[34] = biological target: 5-hydroxytryptamine receptor 2A (Rattus norvegicus) (UniProt P14842); assay: Binding affinity to rat 5-HT2 receptor at 10 uM relative to control
[35] = species on record: Rattus norvegicus; assay: Binding affinity to rat muscarinic acetylcholine receptor at 10 uM relative to control
[36] = species on record: Rattus norvegicus; assay: Binding affinity to rat 5-HT1 receptor at 10 uM relative to control
[37] = biological target: 5-hydroxytryptamine receptor 3A (Homo sapiens) (UniProt P46098); assay: Binding affinity to human 5-HT3 receptor at 10 uM relative to control
5-hydroxytryptamine receptor 3A (Homo sapiens), sequence (P46098 whole entry): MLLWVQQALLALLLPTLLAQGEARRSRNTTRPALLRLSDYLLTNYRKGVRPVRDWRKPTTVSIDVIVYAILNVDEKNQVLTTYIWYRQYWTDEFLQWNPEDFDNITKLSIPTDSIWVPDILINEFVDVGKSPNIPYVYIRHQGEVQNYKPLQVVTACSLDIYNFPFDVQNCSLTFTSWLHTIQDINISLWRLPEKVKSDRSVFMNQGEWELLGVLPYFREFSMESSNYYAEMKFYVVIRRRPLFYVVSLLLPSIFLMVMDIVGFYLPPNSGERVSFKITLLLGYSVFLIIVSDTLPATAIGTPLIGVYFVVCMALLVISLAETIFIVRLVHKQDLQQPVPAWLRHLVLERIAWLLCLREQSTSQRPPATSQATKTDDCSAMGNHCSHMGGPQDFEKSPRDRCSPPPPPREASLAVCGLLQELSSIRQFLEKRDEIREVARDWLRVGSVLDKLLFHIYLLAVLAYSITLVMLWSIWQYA

[38] = species on record: Homo sapiens; assay: Binding affinity to human nicotinic acetylcholine receptor at 10 uM relative to control
[39] = biological target: B2 bradykinin receptor (Homo sapiens) (UniProt P30411); assay: Binding affinity to human B2 bradykinin receptor at 10 uM relative to control
B2 bradykinin receptor (Homo sapiens), sequence (P30411 whole entry): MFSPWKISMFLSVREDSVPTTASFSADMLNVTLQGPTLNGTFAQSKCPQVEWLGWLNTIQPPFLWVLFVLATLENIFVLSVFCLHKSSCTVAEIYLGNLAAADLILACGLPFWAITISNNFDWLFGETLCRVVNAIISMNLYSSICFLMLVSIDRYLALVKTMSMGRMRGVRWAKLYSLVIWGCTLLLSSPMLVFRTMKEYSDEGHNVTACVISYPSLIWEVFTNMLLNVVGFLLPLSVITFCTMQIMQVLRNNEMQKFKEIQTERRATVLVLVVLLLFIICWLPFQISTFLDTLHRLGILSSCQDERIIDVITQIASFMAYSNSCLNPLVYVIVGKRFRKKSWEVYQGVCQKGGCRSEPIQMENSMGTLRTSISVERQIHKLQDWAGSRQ

[40] = biological target: D(1A) dopamine receptor (Homo sapiens) (UniProt P21728); assay: Binding affinity to human dopamine D1 receptor at 10 uM relative to control
D(1A) dopamine receptor (Homo sapiens), sequence (P21728 whole entry): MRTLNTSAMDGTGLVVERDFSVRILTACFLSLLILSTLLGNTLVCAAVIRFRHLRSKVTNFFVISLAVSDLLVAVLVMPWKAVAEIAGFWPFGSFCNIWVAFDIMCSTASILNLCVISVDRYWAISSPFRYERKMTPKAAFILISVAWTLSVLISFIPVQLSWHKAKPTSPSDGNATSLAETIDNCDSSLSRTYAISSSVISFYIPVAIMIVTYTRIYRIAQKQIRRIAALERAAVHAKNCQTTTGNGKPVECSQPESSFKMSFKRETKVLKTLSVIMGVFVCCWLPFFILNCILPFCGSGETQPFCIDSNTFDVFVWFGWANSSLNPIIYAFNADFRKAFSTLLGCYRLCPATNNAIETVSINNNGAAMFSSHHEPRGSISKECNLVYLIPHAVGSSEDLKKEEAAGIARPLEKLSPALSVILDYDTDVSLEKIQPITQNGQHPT

[41] = species on record: Rattus norvegicus; assay: Binding affinity to rat GABA-B receptor at 10 uM relative to control
[42] = species on record: Homo sapiens; assay: Binding affinity to human IL-8 receptor at 10 uM relative to control
[43] = species on record: Rattus norvegicus; assay: Binding affinity to rat GABA-A receptor at 10 uM relative to control
[44] = biological target: T1, C-C chemokine receptor type 10; assay: Displacement of human CCL27-Fc from CCR10 expressed in HEK cell membranes by immunochemical binding analysis; parameters: species or system HEK293
[45] = biological target: Calcitonin gene-related peptide type 1 receptor (Homo sapiens) (UniProt Q16602); assay: Binding affinity to human CGRP1 receptor at 10 uM relative to control
[46] = species on record: Homo sapiens; assay: Binding affinity to human dopamine D4.2 receptor at 10 uM relative to control
[47] = biological target: 5-hydroxytryptamine receptor 4 (Cavia porcellus) (UniProt O70528); assay: Binding affinity to guinea pig 5-HT4 receptor at 10 uM relative to control
[48] = biological target: T1, C-C chemokine receptor type 10; assay: Reversible inhibition of human CCL27-Fc binding to CCR10 expressed in HEK cell membranes by immunochemical binding assay; parameters: species or system HEK293

| SMILES | IC50 [2] [nM] | IC50 [6] [nM] | IC50 [7] [µM] | IC50 [10] [µM] | IC50 [11] [µM] | IC50 [12] [µM] | IC50 [13] [nM] | IC50 [14] [µM] | IC50 [16] [µM] | IC50 [17] [µM] | IC50 [19] [nM] | IC50 [20] [nM] | IC50 [21] [nM] | IC50 [22] [nM] | Activity [23] [%] | Activity [24] [%] | Activity [25] [%] | Activity [26] [%] | Activity [27] [%] | Activity [29] [%] | other results |
| --- | --- | --- | --- | --- | --- | --- | --- | --- | --- | --- | --- | --- | --- | --- | --- | --- | --- | --- | --- | --- | --- |
| CC1CCN(C(=O)C(CCn2cccc2C#N)NS(=O)(=O)c2cccc3[nH]ccc23)CC1 (stereo in doubt; form 1) [listing 1 of 2 here] | 1 | 25.1 | > 10 | – | – | – | – | – | – | – | – | – | – | – | – | – | – | – | – | – | concentration at 1 h [1]: 3.7 µM; Time [3]: <= 8 hr; concentration at 7 h [4]: 200 nM; fraction unbound [5]: 0.01; concentration [8]: 7.6 µM; inhibition in vivo at 100 mg/kg [9]: 75% |
| CC1CCN(C(=O)C(CCn2cccc2C#N)NS(=O)(=O)c2cccc3[nH]ccc23)CC1 (racemic) | 2 | 63.1 | – | > 10 | > 10 | > 10 | 0.398 | > 10 | > 10 | > 10 | 10 | 1.26 | 25.1 | 1 | – | – | – | – | – | – | half-life [15]: < 3 min; hepatic extraction ratio [18]: > 0.88 |
| CC1CCN(C(=O)C(CCn2cccc2C#N)NS(=O)(=O)c2cccc3[nH]ccc23)CC1 (stereo in doubt; form 1) [listing 2 of 2 here] | – | – | – | – | – | – | – | – | – | – | – | – | – | – | < 10 | < 10 | < 10 | < 10 | < 10 | < 10 | Activity [28]: < 10%; Activity [30]: < 10%; Activity [31]: < 10%; inhibition [32]: Dose-dependent effect; inhibition [33]: < 10%; Activity [34]: < 10%; Activity [35]: 22%; Activity [36]: 19%; Activity [37]: < 10%; Activity [38]: < 10%; Activity [39]: < 10%; Activity [40]: < 10%; Activity [41]: < 10%; Activity [42]: < 10%; Activity [43]: < 10% |
| CC1CCN(C(=O)C(CCn2cccc2C#N)NS(=O)(=O)c2cc(Cl)c(N)c(Cl)c2)CC1 (stereo not given) | 20 | 1580 | > 10 | > 10 | > 10 | > 10 | 2 | > 10 | > 10 | > 10 | 20 | 12.6 | 158 | 12.6 | 12 | < 10 | < 10 | < 10 | 11 | < 10 | IC50 [44]: 3.4 nM; Activity [30]: 12%; Activity [31]: < 10%; Activity [45]: < 10%; Activity [46]: < 10%; Activity [34]: < 10%; Activity [35]: 11%; Activity [36]: 11%; Activity [37]: < 10%; Activity [47]: 28%; Activity [38]: < 10%; Activity [39]: < 10%; Activity [40]: < 10%; Activity [41]: 10%; IC50 [48]: 3.4 nM |
